Measurements taken from article PMC8728736, “A Reactivity-Based ^18F-Labeled Probe for PET Imaging of Oxidative Stress in Chemotherapy-Induced Cardiotoxicity” (Molecular Pharmaceutics, 2021).

Experiments:
[1] = Reactivity of 18F-FPBT to other biologically relevant ROS; conditions: ROS other than superoxide
Procedure: (§1) ^18F-FPBT (0.5–2.0 MBq) was reacted with potassium superoxide (source of superoxide, 1 mg), hydrogen peroxide (100 μM), Fenton-reaction-generated hydroxyl radicals (100 μM), iron(II) sulfate heptahydrate (100 μM), tert-butyl hydroperoxide (100 μM), tert-butoxy radical (100 μM), and 3-morpholinosydnomine (source of peroxynitrite (100 μM)) for 5 min or diethylamine NONOate (source of nitric oxide, 100 μM) for 30 min at room temperature, after which it was subjected to radio-HPLC analysis and % oxidation was calculated.

[2] = Reactivity of 18F-FPBT to reactive oxygen species: peroxynitrite; conditions: 3-morpholinosydnomine 100 μM, 5 min
Procedure: as §1

[3] = Reactivity of 18F-FPBT to reactive oxygen species: superoxide; conditions: potassium superoxide, 5 min, ascorbate 1 mg/mL, n = 3
Procedure: as §1

[4] = Reactivity of 18F-FPBT to reactive oxygen species: nitric oxide; conditions: diethylamine NONOate 100 μM, 30 min
Procedure: as §1

[5] = Reactivity of 18F-FPBT to reactive oxygen species: hydrogen peroxide; conditions: 100 μM, 5 min
Procedure: as §1

[6] = Lipophilicity, partition between 1-octanol and PBS; format: physicochemical; conditions: 1-octanol/PBS, pH 7.4, 1-octanol/PBS pH 7.4, shake-flask, n = 6; read-out: LogD
Procedure: The lipophilicity of ^18F-FPBT and ^18F-FPBT-Ox was determined by a conventional partition method between 1-octanol and phosphate buffered saline (PBS), pH 7.4. 1-Octanol was presaturated with PBS before use. The radiotracer (∼2 KBq) was added to a mixture of PBS (200 μL) and 1-octanol (200 μL) in a 1.5 mL Eppendorf vial (n = 6). The mixture was vigorously agitated at rt for 5 min and then centrifuged at 3000 g for 10 min. A 100 μL aliquot from each layer was drawn for measurement in a gamma counter. The LogDoct/PBS was calculated as follows: log [(cpm in the 1-octanol layer – cpm 1-octanol blank)/(cpm in the PBS layer – cpm PBS blank)].

[7] = Serum stability at 37 °C by radio-HPLC; format: in vitro ADME, rat; conditions: rat serum, ice-cold acetonitrile precipitation
Procedure: ^18F-FPBT (∼3.0 MBq) in 5% ethanol in PBS (200 μL) containing sodium ascorbate (0.01 mg/mL) was incubated with rat serum (200 μL) at 37 °C for 1 min or 1 h. Subsequently, plasma proteins were precipitated from the supernatant with ice-cold acetonitrile (1.5 mL), and samples were centrifuged (3 min, 13 000 rpm). The residual activity in the pellet was <3%. The supernatant (∼2.0 MBq, 1.0 mL) was analyzed by radio-HPLC. HPLC method: ZORBAX column (300SB-C18, semipreparative 9.4 mm × 250 mm, 5 μm) using acetonitrile and water as the mobile phase, at a flow rate of 3.0 mL/min. The following gradient was used: from 50% to 90% acetonitrile in 15 min; kept at 90% acetonitrile for 10 min; from 90 to 50% acetonitrile in 5 min.
^18F-FBPT-Ox (2–4 MBq, 50 μL in 10% EtOH/PBS) was added to serum (500 μL) and incubated at 37 °C for 5, 15, and 30 min, respectively. Plasma proteins were precipitated with a 5-sulfosalicylic acid water solution (10% w/v, 1 mL) and centrifuged (3 min, 13 000 rpm). The supernatant was removed and diluted with 500 μL of DI H2O and analyzed via radio-HPLC. A control experiment was performed where ^18F-FBPT-Ox (2 MBq, 50 μL in 10% EtOH/PBS) was added to 500 μL of PBS, incubated at 37 °C for 30 min. A 5-sulfosalicylic acid water solution (10% w/v, 1 mL) was added, thoroughly mixed, then diluted with 500 μL of DI H2O, and analyzed via radio-HPLC. […]

[8] = Post-mortem biodistribution in healthy rats; format: in vivo, Wistar rats; conditions: for Ex vivo biodistribution, Blood / Ex vivo biodistribution, Bone / Ex vivo biodistribution, Brain / Ex vivo biodistribution, Heart / Ex vivo biodistribution, Kidney / Ex vivo biodistribution, Large Intestine / Ex vivo biodistribution, Liver / Ex vivo biodistribution, Lung / Ex vivo biodistribution, Muscle / Ex vivo biodistribution, Spleen / Ex vivo biodistribution, Urine / Ex vivo biodistribution, Small Intestine: healthy rats, mean ± SD, n = 3
Procedure: Wistar rats (male, 319 ± 20 g) were injected intravenously via the tail vein with either ^18F-FPBT (1.0 ± 0.4 MBq) or ^18F-FPBT-Ox (1.1 ± 0.5 MBq). The animals were sacrificed by cervical dislocation at 1, 5, or 30 min postinjection (n = 3/group). Organs and tissues of interest were harvested and weighed, and the radioactivity was measured in a gamma counter. Organ uptake was calculated as the percentage injected dose per gram of tissue mass (% ID/g). Data are reported as mean ± SD.

[9] = Reactivity of 18F-FPBT to reactive oxygen species: hydroxyl radical; conditions: Fenton-reaction-generated hydroxyl radicals 100 μM, 5 min
Procedure: as §1

[10] = Reactivity of 18F-FPBT to reactive oxygen species: tert-butoxy radical; conditions: 100 μM, 5 min
Procedure: as §1

[11] = Vial stability by radio-HPLC; format: physicochemical; conditions: room temperature, 4 h
Procedure: ^18F-FPBT (1–4 MBq) in 100% ethanol or 5% ethanol in PBS containing sodium ascorbate (0.01 mg/mL) was kept at room temperature for 4 h and then analyzed by radio-HPLC.

LogD [6]: 1 ± 0.08
Residual activity in the pellet after protein precipitation [7]: < 3%
Uptake by major organs (brain, heart, lung, spleen), in words ([8]; healthy Wistar rats, iv): rapid uptake
Ex vivo biodistribution, Blood ([8]; iv, 1 min): 0.12 ± 0.05 % ID/g
Ex vivo biodistribution, Bone ([8]; iv, 1 min): 0.14 ± 0.01 % ID/g
Ex vivo biodistribution, Brain ([8]; iv, 1 min): 0.57 ± 0.04 % ID/g
Ex vivo biodistribution, Heart ([8]; iv, 1 min): 1.33 ± 0.15 % ID/g
Ex vivo biodistribution, Kidney ([8]; iv, 1 min): 1.58 ± 0.11 % ID/g
Ex vivo biodistribution, Large Intestine ([8]; iv, 1 min): 0.21 ± 0.03 % ID/g
Ex vivo biodistribution, Liver ([8]; iv, 1 min): 1.52 ± 0.25 % ID/g
Ex vivo biodistribution, Lung ([8]; iv, 1 min): 0.66 ± 0.15 % ID/g
Ex vivo biodistribution, Muscle ([8]; iv, 1 min): 0.08 ± 0.03 % ID/g
Ex vivo biodistribution, Spleen ([8]; iv, 1 min): 0.67 ± 0.09 % ID/g
Ex vivo biodistribution, Urine ([8]; iv, 1 min): 0.02 ± 0.01 % ID/g
Ex vivo biodistribution, Blood ([8]; iv, 5 min): 0.06 ± 0.00 % ID/g
Ex vivo biodistribution, Bone ([8]; iv, 5 min): 0.18 ± 0.18 % ID/g
Ex vivo biodistribution, Brain ([8]; iv, 5 min): 0.33 ± 0.04 % ID/g
Ex vivo biodistribution, Heart ([8]; iv, 5 min): 0.37 ± 0.08 % ID/g
Ex vivo biodistribution, Kidney ([8]; iv, 5 min): 0.60 ± 0.27 % ID/g
Ex vivo biodistribution, Large Intestine ([8]; iv, 5 min): 0.13 ± 0.02 % ID/g
Ex vivo biodistribution, Liver ([8]; iv, 5 min): 1.75 ± 0.19 % ID/g
Ex vivo biodistribution, Lung ([8]; iv, 5 min): 0.34 ± 0.03 % ID/g
Ex vivo biodistribution, Muscle ([8]; iv, 5 min): 0.05 ± 0.03 % ID/g
Ex vivo biodistribution, Small Intestine ([8]; iv, 5 min): 0.53 ± 0.31 % ID/g
Ex vivo biodistribution, Spleen ([8]; iv, 5 min): 0.18 ± 0.01 % ID/g
Ex vivo biodistribution, Urine ([8]; iv, 5 min): 1.22 ± 0.89 % ID/g
Ex vivo biodistribution, Blood ([8]; iv, 30 min): 0.03 ± 0.00 % ID/g
Ex vivo biodistribution, Bone ([8]; iv, 30 min): 0.13 ± 0.02 % ID/g
Ex vivo biodistribution, Brain ([8]; iv, 30 min): 0.06 ± 0.01 % ID/g
Ex vivo biodistribution, Heart ([8]; iv, 30 min): 0.20 ± 0.04 % ID/g
Ex vivo biodistribution, Kidney ([8]; iv, 30 min): 0.17 ± 0.00 % ID/g
Ex vivo biodistribution, Large Intestine ([8]; iv, 30 min): 0.10 ± 0.03 % ID/g
Ex vivo biodistribution, Liver ([8]; iv, 30 min): 0.47 ± 0.13 % ID/g
Ex vivo biodistribution, Lung ([8]; iv, 30 min): 0.18 ± 0.01 % ID/g
Ex vivo biodistribution, Muscle ([8]; iv, 30 min): 0.08 ± 0.02 % ID/g
Ex vivo biodistribution, Small Intestine ([8]; iv, 30 min): 5.01 ± 0.90 % ID/g
Ex vivo biodistribution, Spleen ([8]; iv, 30 min): 0.05 ± 0.01 % ID/g
Ex vivo biodistribution, Urine ([8]; iv, 30 min): 3.79 ± 2.12 % ID/g
Defluorination in vivo (radioactivity accumulation in the bone) ([8]; rats and mice): inert toward defluorination
Vial stability ([11]; 5% ethanol in PBS with ascorbic acid (0.01 mg/mL)): stable
Vial stability ([11]; pure ethanol): stable
SMILES: [18F]CCCN1c2ccccc2SC1c1ccccc1 (stereo not shown) [^18F-FPBT, 3-(3-[^18F]Fluoropropyl)-2-phenyl-2,3-dihydrobenzo[d]thiazole]
Reactivity to other biologically relevant ROS [1]: little or no reactivity
Reactivity to peroxynitrite [2]: some reactivity
% oxidation by superoxide in the presence of ascorbate [3]: 31 ± 5%
Reactivity to nitric oxide [4]: some reactivity
Reactivity to hydrogen peroxide [5]: some reactivity
Route of clearance / excretion, in words ([8]; healthy Wistar rats, iv): excreted by both renal and hepatobiliary routes
Reactivity to hydroxyl radical [9]: inert
Oxidation by tert-butoxy radical [10]: no oxidation was observed
